Measurements from patent USRE38257E1, “Piperdine derivatives and hypotensives containing the same” (Ajinomoto Co., Inc., priority 1988, dated 2003).

System: male spontaneously hypertensive rats
Assay: Decrease in systolic blood pressure in spontaneously hypertensive rats after intravenous bolus injection, indirect (tail-cuff) method
Format: in vivo, rat
Conditions: for Decrease in systolic blood pressure (mmHg) time after administration (hour) 0.5: 0.5 hour after administration; for Decrease in systolic blood pressure (mmHg) time after administration (hour) 4: 4 hours after administration
Experimental: As test animals, four male spontaneously hypertensive rats (weight 400 to 440 g) that were sufficiently adapted for feeding and in which hypertension was confirmed were used.
Physiological saline aqueous solution containing 2.5% Nicolle and 2.5% ethanol of sample was intravenously administered by bolus injection at a dose of 1 ml per 1 kg of body weight. Systolic blood pressure after administration was measured by the indirect (tail-cuff) method.

Structure (SMILES) | Decrease in systolic blood pressure (mmHg) time after administration (hour) 0.5 (dose 10 mg/kg i.v. bolus) | Decrease in systolic blood pressure (mmHg) time after administration (hour) 4 (dose 10 mg/kg i.v. bolus) | Decrease in systolic blood pressure (mmHg) time after administration (hour) 0.5 (dose 3 mg/kg i.v. bolus) | Decrease in systolic blood pressure (mmHg) time after administration (hour) 4 (dose 3 mg/kg i.v. bolus)
Cl.O=C(CCCN1CCC(=C2c3ccccc3C=Cc3ccccc32)CC1)c1cccs1 [Example 234, 4-(4-(5H-Dibenzo[a,d]cyclohepten-5-ylidene)-1-piperidinyl)-1-(2-thienyl)-1-butanone hydrochloride] | −96 mmHg | −2 mmHg |  | 
C1=Cc2ccccc2C(=C2CCN(CCCOC3CCCCO3)CC2)c2ccccc21.Cl (stereo not drawn) [Example 235, 3-(4-(5H-Dibenzo[a,d]cyclohepten-5-ylidene)-1-piperidinyl)-1-propyl(2-tetrahydropyranyl)ether hydrochloride] | −99 mmHg | −5 mmHg |  | 
Cl.O=C(CCN1CCC(=C2c3ccccc3C=Cc3ccccc32)CC1)OC1CCCCC1 [Example 236, Cyclohexyl 3-(4-(5H-Dibenzo[a,d]cyclohepten-5-ylidene)-1-piperidinyl)propionate hydrochloride] | −10 mmHg | −15 mmHg |  | 
Cl.O=C(NCCN1CCCCC1=C1c2ccccc2C=Cc2ccccc21)c1ccc([N+](=O)[O-])cc1 [Example 237, N-(2-(5H-Dibenzo[a,d]cyclohepten-5-ylidene)-1-piperidinyl)ethyl-4-nitrobenzamide hydrochloride] | −65 mmHg | −14 mmHg |  | 
O=C(O)C(CCN1CCC(=C2c3ccccc3C=Cc3ccccc32)CC1)C1CCCCC1 (stereo not drawn) [Example 238, 2-Cyclohexyl-4-(4-(5H-dibenzo[a,d]cyclohepten-5-ylidene)-1-piperidinyl)butyric acid] | −14 mmHg | −5 mmHg |  | 
Cl.[O-][S+](CCCN1CCC(=C2c3ccccc3C=Cc3ccccc32)CC1)c1ccccc1 (stereo not drawn) [Example 239, 3-(4-(5H-Dibenzo[a,d]cyclohepten-5-ylidene)-1-piperidinyl)-1-propyl phenylsulphoxide hydrochloride] | −68 mmHg | −15 mmHg |  | 
COc1cc2c(cc1OC)CC(CCN1CCC(=C3c4ccccc4C=Cc4ccccc43)CC1)C2.Cl [Example 240] |  |  | −118 mmHg | −5 mmHg
Cl.O=S(=O)(CCCN1CCC(=C2c3ccccc3C=Cc3ccccc32)CC1)c1ccccc1 [Example 241, 3-(4-(5H-Dibenzo[a,d]cyclohepten-5-ylidene)-1-piperidinyl)-1-propyl phenylsulphone hydrochloride] | −73 mmHg | −4 mmHg |  | 
COc1ccc(C(=O)NCCN2CCC(=C3c4ccccc4C=Cc4ccccc43)CC2)cc1OC.Cl [Example 242, N-(2-(5H-Dibenzo[a,d]cyclohepten-5-ylidene)-1-piperidinyl)ethyl-3′,4′-dimethoxybenzamide hydrochloride] | −28 mmHg | 7 mmHg |  | 
Cl.O=C(NCCN1CCCCC1=C1c2ccccc2C=Cc2ccccc21)C1CCCCC1 [Example 243, N-(2-(5H-Dibenzo[a,d]cyclohepten-5-ylidene)-1-piperidinyl)ethyl cyclohexanecarboxamide hydrochloride] | −111 mmHg | −31 mmHg |  | 
Cl.O=C(CCCN1CCC(=C2c3ccccc3C=Cc3ccccc32)CC1)N1CCOCC1 [Example 245, 1-(4-(4-(5H-Dibenzo[a,d]cyclohepten-5-ylidene)-1-piperidinyl)butanoyl)morpholine hydrochloride] | −34 mmHg | −10 mmHg |  | 
CC(CC(=O)N1CCSCC1)N1CCC(=C2c3ccccc3C=Cc3ccccc32)CC1.Cl (stereo not drawn) [Example 246] | −34 mmHg | −4 mmHg |  | 
Cl.O=[N+]([O-])c1ccc(CCCN2CCC(=C3c4ccccc4C=Cc4ccccc43)CC2)cc1 [Example 247, 3-(4-(5H-Dibenzo[a,d]cyclohepten-5-ylidene)-1-piperidinyl)-1-(4-notrophenyl)propane hydrochloride] | −119 mmHg | −40 mmHg |  | 
Cl.Cl.Nc1ccc(CCCN2CCC(=C3c4ccccc4C=Cc4ccccc43)CC2)cc1 [Example 248, 1-(4-Aminophenyl)-3-(4-(5H-Dibenzo[a,d]cyclohepten-5-ylidene)-1-piperidinyl)propane dihydrochloride] | −101 mmHg | −92 mmHg |  | 
CC(=O)Nc1ccc(CCCN2CCC(=C3c4ccccc4C=Cc4ccccc43)CC2)cc1.Cl.Cl [Example 249, 1-(4-Acetylaminophenyl)-3-(4-(5H-Dibenzo[a,d]cyclohepten-5-ylidene)-1-piperidinyl)propane dihydrochloride] | −121 mmHg | −100 mmHg |  | 
Cl.O=[N+]([O-])c1ccccc1CCCN1CCC(=C2c3ccccc3C=Cc3ccccc32)CC1 [Example 250, 3-(4-(5H-Dibenzo[a,d]cyclohepten-5-ylidene)-1-piperidinyl)-1-(2-nitrophenyl)propane hydrochloride] | −136 mmHg | −30 mmHg |  | 
Cl.Cl.Nc1ccccc1CCCN1CCC(=C2c3ccccc3C=Cc3ccccc32)CC1 [Example 251, 1-(2-Aminophenyl)-3-(4-(5H-Dibenzo[a,d]cyclohepten-5-ylidene)-1-piperidinyl)propane dihydrochloride] | −110 mmHg | −24 mmHg |  | 
CC(=O)Nc1ccccc1CCCN1CCC(=C2c3ccccc3C=Cc3ccccc32)CC1.Cl.Cl [Example 252, 1-(2-Acetylaminophenyl)-3-(4-(5H-Dibenzo[a,d]cyclohepten-5-ylidene)-1-piperidinyl)propane dihydrochloride] | −23 mmHg | −5 mmHg |  | 
Cl.O=[N+]([O-])c1ccccc1CCCCN1CCC(=C2c3ccccc3C=Cc3ccccc32)CC1 [Example 255, 4-(4-(5H-Dibenzo[a,d]cyclohepten-5-ylidene)-1-piperidinyl)-1-(2-nitrophenyl)butane hydrochloride] | −62 mmHg | 2 mmHg |  | 
CCOC(=O)C(CCN1CCC(=C2c3ccccc3C=Cc3ccccc32)CC1)CC1CCCCC1.Cl (stereo not drawn) [Example 259, Ethyl 2-cyclohexylmethyl-4-(4-(5H-dibenzo[a,d]cyclohepten-5-ylidene)-1-piperidinyl)butyrate hydrochloride] | −46 mmHg | −5 mmHg |  | 
CC(=O)NC1CCC(CCCCN2CCC(=C3c4ccccc4C=Cc4ccccc43)CC2)CC1.Cl (stereo not drawn) [Example 260, 1-(4-acetylamino-1-cyclohexyl)-4-(4-(5H-dibenzo[a,d]cyclohepten-5-ylidene)-1-piperidinyl)butane hydrochloride] | −51 mmHg | −10 mmHg |  | 
CCOC(=O)C(CCC1CCCCC1)CN1CCC(=C2c3ccccc3C=Cc3ccccc32)CC1.Cl (stereo not drawn) [Example 262] | −16 mmHg | −3 mmHg |  | 
COc1cc2nc(N3CCC(=C4c5ccccc5C=Cc5ccccc54)CC3)nc(N)c2cc1OC.Cl.Cl [Example 266, 2-(4-(5H-Dibenzo[a,d]cyclohepten-5-ylidene)-1-piperidinyl)-4-amino-6,7-dimethoxyquinazoline dihydrochloride] | −133 mmHg | −77 mmHg |  | 
CC(=O)N(CCCN1CCC(=C2c3ccccc3C=Cc3ccccc32)CC1)C1CCCCC1.Cl [Example 267, N-Acetyl-N-(3-4-(5H-Dibenzo[a,d]cyclohepten-5-ylidene)-1-piperidinyl)-1-propylcyclohexylamine hydrochloride] | −40 mmHg | 0 mmHg |  | 
Cl.O=C1CCCCN1CCCCN1CCC(=C2c3ccccc3C=Cc3ccccc32)CC1 [Example 268, N-(4-(4-(5H-Dibenzo[a,d]cyclohepten-5-ylidene)-1-piperidinyl)-1-butyl)-2-piperidone hydrochloride] | −29 mmHg | 13 mmHg |  | 
CCOC(=O)C1(CCCCN2CCC(=C3c4ccccc4C=Cc4ccccc43)CC2)CCCCC1.Cl [Example 269, 1-(4-(4-(5H-Dibenzo[a,d]cyclohepten-5-ylidene)-1-piperidinyl)-1-butyl)-1-ethoxycarbonxylcyclohexane hydrochloride] | 143 mmHg | −71 mmHg |  | 
C1=Cc2ccccc2C(=C2CCN(CCCc3cccnc3)CC2)c2ccccc21.Cl.Cl [Example 270, 3-(4-(5H-Dibenzo[a,d]cyclohepten-5-ylidene)-1-piperidinyl)-1-(3-pyridyl)propane dihydrochloride] | −18 mmHg | 2 mmHg |  | 
